Type in all cases: cell-based, human
The subject of experiment [1] is Fe—S clusters bound to immunoprecipitated CSPα. Briefly: UV-Vis absorbance spectra of CSPα immunoprecipitated from ANCL patient fibroblasts. Particulars: 200 μM, 72 h, compared to control (0.1% DMSO), FIG. 7A. As to the method: (§1) ANCL patient-derived fibroblasts were treated with 200 μM of L1 or Dfx, or vehicle (0.1% DMSO=Control) for 72 h, before measuring the UV-Vis absorbance spectra of immunoprecipitated CSPα eluted by trypsinization (solid lines). Spectra were re-read after 10 min of 0.1 N HCl treatment (dashed lines). The experiments shown in FIGS. 7B-7I, were conducted using ANCL fibroblasts converted to iNs using BAM+ND1 technique. […] Quantitative immunoblotting was used to measure levels of oligomerized and fully palmitoylated CSPα as well as total SNAP-25. Oligo=oligomers; Palm=palmitoylated. […] The interaction of CSPα with SNAP-25 in ANCL iNs was measured by immunoprecipitating SNAP-25 followed by quantitative immunoblotting of co-immunoprecipitated CSPα (normalized to SNAP-25 IP). Note that mainly CSPα monomers and not oligomers were detected bound to SNAP-25. Control=control sham IP without IgG. […] Turnover of SNAP-25 was determined by cycloheximide chase, while maintaining the iron-chelators or vehicle in the medium. […] In the experiments shown in FIGS. 7E-7G, ANCL iNs treated with L1, Dfx, or vehicle for 56 d and analyzed. […] The levels of lipofuscin were determined by ELISA. In the experiments shown in FIGS. 7H-7I 56 day old untreated ANCL iNs were treated with L1, Dfx, or vehicle, and analyzed. […]

The subject of experiment [2] is ANCL iNs. Briefly: Lipofuscin autofluorescence in ANCL iNs. The following applies: ANCL iNs treated for 56 d from iN conversion (prevention); compared to control; FIG. 7E. As to the method: as §1, with “SNAP-25.” for “SNAP-25. Control=control sham IP without IgG.”
Effect of iron chelators on the accumulation of lipofuscin was monitored by ELISA for lipofuscin or based on lipofuscin autofluorescence. […]

Experiment [3] concerns ANCL iNs. Description: Lipofuscin ELISA in ANCL iNs. Particulars: compared to control; for lipofuscin ELISA signal: ANCL iNs treated for 56 d (prevention), FIG. 7G; for levels of lipofuscin (ELISA): added to ANCL iNs after 56 days of lipofuscin accumulation, 0, 7, 14, 21 d of treatment, FIG. 7I. As to the method:
ANCL patient-derived fibroblasts were treated with 200 μM of L1 or Dfx, or vehicle (0.1% DMSO=Control) for 72 h, before measuring the UV-Vis absorbance spectra of immunoprecipitated CSPα eluted by trypsinization (solid lines). Spectra were re-read after 10 min of 0.1 N HCl treatment (dashed lines). The experiments shown in FIGS. 7B-7I, were conducted using ANCL fibroblasts converted to iNs using BAM+ND1 technique. […] Quantitative immunoblotting was used to measure levels of oligomerized and fully palmitoylated CSPα as well as total SNAP-25. Oligo=oligomers; Palm=palmitoylated. […] The interaction of CSPα with SNAP-25 in ANCL iNs was measured by immunoprecipitating SNAP-25 followed by quantitative immunoblotting of co-immunoprecipitated CSPα (normalized to SNAP-25 IP). Note that mainly CSPα monomers and not oligomers were detected bound to SNAP-25. Control=control sham IP without IgG. […] Turnover of SNAP-25 was determined by cycloheximide chase, while maintaining the iron-chelators or vehicle in the medium. […] In the experiments shown in FIGS. 7E-7G, ANCL iNs treated with L1, Dfx, or vehicle for 56 d and analyzed. […] The levels of lipofuscin were determined by ELISA. In the experiments shown in FIGS. 7H-7I 56 day old untreated ANCL iNs were treated with L1, Dfx, or vehicle, and analyzed. […] Data are from FIG. 7A representative of n=4, FIG. 7B n=4, FIG. 7C n=4, FIG. 7D n=7, FIG. 7F n=4, FIG. 7G n=4, FIG. 7H n=6, FIG. 7I n=3. In FIGS. 7B-7C and FIGS. 7F-7G *P<0.05; **P<0.01; ****P<0.0001 by two-tailed Student's t-test. #P<0.05 by Mann-Whitney-Wilcoxon U test. In FIG. 7D-7C and FIGS. 7H-7I **P<0.01; ***P<0.001; ****P<0.0001 by two-way ANOVA; ##P<0.01; ###P<0.001; ####P<0.0001 by Tukey's multiple comparisons test.
iNs from each well of a 6 well dish were solubilized in 100 μl PBS with 0.1% Triton X-100 for 1 h at 4° C. Post nuclear supernatant collected by centrifugation at 1000 gav for 15 min was used for the assay. These samples were analyzed for lipofuscin content using human lipofuscin competitive ELISA (MyBiosource; MBS7217173). Following the colorimetric reaction, optical density at 450 nm was read from the standard and the sample wells using Synergy H1 Hybrid Reader (BioTek).
Effect of iron chelators on the accumulation of lipofuscin was monitored by ELISA for lipofuscin or based on lipofuscin autofluorescence. […] Effect of iron chelators on the accumulation of ATP5G was also studied.
As a treatment paradigm, iron-chelators were also added post-accumulation of lipofuscin. L1 and Dfx were added to ANCL iNs after 56 days of lipofuscin accumulation, and levels of ATP5G and lipofuscin were compared over the subsequent 3 weeks.

For `CC(=O)N(O)CCCCCNC(=O)CCC(=O)N(O)CCCCCNC(=O)CCC(=O)N(O)CCCCCN` [Dfx, N′-[5-(Acetyl-hydroxy-amino)pentyl]-N-[5-[3-(5-aminopentyl-hydroxy-carbamoyl)propanoylamino]pentyl]-N-hydroxy-butane diamide], the “UV-Vis signature of Fe—S clusters bound to immunoprecipitated CSPα” value in experiment [1] is given as “reduced”. The lipofuscin autofluorescence result with ANCL iNs [2] is on record as “reduced”. Further, in the experiment on ANCL iNs [3], the “lipofuscin ELISA signal” value is on record as “significant reduction” and the “levels of lipofuscin (ELISA)” value was “reduced to the levels observed in the prevention experiments”.

Turning to `Cc1c(O)c(=O)ccn1C` [L1, 3-hydroxy-1,2-dimethyl-4(1H)-pyridone], the “UV-Vis signature of Fe—S clusters bound to immunoprecipitated CSPα” value in experiment [1] is “reduced”. Moreover, the lipofuscin autofluorescence result in the experiment with ANCL iNs [2] was “reduced”. Further, in the experiment with ANCL iNs [3], the “lipofuscin ELISA signal” value is listed as “significant reduction” and the “levels of lipofuscin (ELISA)” value is on record as “reduced to the levels observed in the prevention experiments”.
